Test results published in the NIST ThermoML archive (doi:10.1021/je3004645).

Conditions: for electrical conductivity / mass density / viscosity: 101.33 kPa, Liquid; for electrical conductivity: Alternating current cell with electrodes; for mass density: Pycnometric method; for viscosity: Capillary tube (Ostwald / Ubbelohde) method; for Triple point temperature / Glass transition temperature: DTA

CC[n+]1ccc(C)cc1.O=S(=O)([N-]S(=O)(=O)C(F)(F)F)C(F)(F)F
Conditions | Glass transition temperature [°C] | Triple point temperature [K] | electrical conductivity [S/m] | mass density [kg/m3] | viscosity [mPa·s]
– | -74.5 | – | – | – | –
283.15 K | – | – | 0.424 | 1505.2 | –
288.15 K | – | – | 0.525 | 1501 | –
293.15 K | – | – | 0.638 | 1496.1 | –
298.15 K | – | – | 0.763 | 1492 | 32.75
303.15 K | – | – | 0.901 | 1487.7 | 27.31
308.15 K | – | – | 1.05 | 1483 | 23.1
313.15 K | – | – | 1.21 | 1478.3 | 19.69
318.15 K | – | – | 1.38 | 1473.4 | 16.95
323.15 K | – | – | 1.55 | 1468.8 | 14.66
328.15 K | – | – | 1.75 | 1464.4 | 12.85
333.15 K | – | – | 1.96 | 1459.9 | 11.34
338.15 K | – | – | 2.17 | 1455.1 | 10.1
343.15 K | – | – | – | – | 9.07
348.15 K | – | – | – | – | 8.19
353.15 K | – | – | – | – | 7.43
358.15 K | – | – | – | – | 6.76
363.15 K | – | – | – | – | 6.19
Crystal 1 | – | 291 | – | – | –
Crystal 2 | – | 278.2 | – | – | –

CCCC[n+]1ccc(C)cc1.O=S(=O)([N-]S(=O)(=O)C(F)(F)F)C(F)(F)F
Conditions | Glass transition temperature [°C] | Triple point temperature [K] | electrical conductivity [S/m] | mass density [kg/m3] | viscosity [mPa·s]
– | -78 | – | – | – | –
278.15 K | – | – | 0.124 | – | –
283.15 K | – | – | 0.166 | 1432.8 | –
288.15 K | – | – | 0.215 | 1428.4 | –
293.15 K | – | – | 0.273 | 1423.4 | –
298.15 K | – | – | 0.341 | 1418.7 | 55.14
303.15 K | – | – | 0.419 | 1414 | 44.2
308.15 K | – | – | 0.509 | 1409.3 | 35.85
313.15 K | – | – | 0.6 | 1404.7 | 29.61
318.15 K | – | – | 0.702 | 1400.2 | 24.77
323.15 K | – | – | 0.817 | 1395.8 | 20.85
328.15 K | – | – | 0.941 | 1391.3 | 17.86
333.15 K | – | – | 1.07 | 1386.9 | 15.37
338.15 K | – | – | 1.21 | 1382.5 | 13.42
343.15 K | – | – | – | – | 11.65
348.15 K | – | – | – | – | 10.15
353.15 K | – | – | – | – | 8.89
358.15 K | – | – | – | – | 7.94
Crystal 1 | – | 292.4 | – | – | –
Crystal 2 | – | 242.2 | – | – | –
Crystal 3 | – | 235.8 | – | – | –
